Values of other authors as cited in patent publication US8648119B2, “Controlled release immunomodulator compositions and methods for the treatment of otic disorders” (Otonomy, Inc., priority 2008, dated 2014).

Key:
[1] = tested on: Langerhans' cells or dermal connective tissue; details: in vivo
[2] = tested on: mouse collagen-induced arthritis model; details: 30 mg/kg dose
[3] = tested on: TNF-α production in the LPS-induced human PBMC cells; details: read-out: IC50 for inhibiting TNF-α production
[4] = tested on: TNF-α production in the LPS-induced MonoMac-6 cells; details: read-out: IC50 for inhibiting TNF-α production
TACE = TACE (Homo sapiens, UniProt P78536)
Sequence of TACE (P78536 215-824): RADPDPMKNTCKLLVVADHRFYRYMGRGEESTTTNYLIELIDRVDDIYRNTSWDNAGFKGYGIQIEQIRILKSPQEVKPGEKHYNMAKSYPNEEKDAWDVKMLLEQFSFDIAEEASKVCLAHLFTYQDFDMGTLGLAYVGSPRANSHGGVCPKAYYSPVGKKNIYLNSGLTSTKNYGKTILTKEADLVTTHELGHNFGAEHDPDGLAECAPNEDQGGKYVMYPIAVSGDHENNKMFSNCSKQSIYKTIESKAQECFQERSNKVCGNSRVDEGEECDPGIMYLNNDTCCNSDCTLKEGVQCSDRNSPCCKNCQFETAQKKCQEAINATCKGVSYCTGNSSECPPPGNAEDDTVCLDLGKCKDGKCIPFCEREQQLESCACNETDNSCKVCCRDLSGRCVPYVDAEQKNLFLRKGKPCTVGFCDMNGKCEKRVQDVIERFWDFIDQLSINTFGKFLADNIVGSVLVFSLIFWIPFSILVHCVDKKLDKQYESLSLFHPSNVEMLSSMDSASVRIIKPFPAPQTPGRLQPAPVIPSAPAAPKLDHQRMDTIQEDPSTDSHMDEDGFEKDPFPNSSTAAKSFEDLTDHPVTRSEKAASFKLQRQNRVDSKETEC

[5] = in vivo
Meniere's disease = details: infusion into the scala tympani
rat arthritis model = details: 30 mg/kg
patients [6] = tested on: patients
TNF expressing cells = details: in vitro, in the presence of complement
lymphotoxin (TNF-β) = target: T1, lymphotoxin (TNF-β (Homo sapiens, UniProt P01374))
T1 sequence (P01374 35-205): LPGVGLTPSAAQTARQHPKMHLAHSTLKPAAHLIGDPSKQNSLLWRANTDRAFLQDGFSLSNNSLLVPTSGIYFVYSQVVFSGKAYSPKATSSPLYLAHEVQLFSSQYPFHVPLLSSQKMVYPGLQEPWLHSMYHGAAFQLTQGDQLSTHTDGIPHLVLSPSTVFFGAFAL

patients [7] = details: three phase-III clinical trials

Compound: C=CC[C@@H]1/C=C(\C)C[C@H](C)C[C@H](OC)[C@H]2O[C@@](O)(C(=O)C(=O)N3CCCC[C@H]3C(=O)O[C@H](/C(C)=C/[C@@H]3CC[C@@H](O)[C@H](OC)C3)[C@H](C)[C@@H](O)CC1=O)[C@H](C)C[C@@H]2OC (relative stereo) [tacrolimus, [3S-[3R*[E(1S*,3S*,4S*)], 4S*,5R*,8S*,9E,12R*,14R*,15S*,16R*,18S*,19S*,26aR*]]-5,6,8,11,12,13,14,15,16,17,18,19,24,25,26,26a-hexadecahydro-5,19-dihydroxy-3-[2-(4-hydroxy-3-methoxycyclohexyl)-1-methylethenyl]-14,16-dimethoxy-4,10,12,18-tetramethyl-8-(2-propenyl)-15,19-epoxy-3H-pyrido[2,1-39c][1,4]oxaazacyclotricosine-1,7,20,21 (4H,23H)-tetrone monohydrate]
- atrophy of the skin [1]: do not cause atrophy of the skin
- suppression of Langerhans' cells or dermal connective tissue [1]: do not suppress Langerhans' cells or dermal connective tissue
- bioavailability after topical application: less than 0.5%
- systemic exposure after topical application: very little, if any, systemic exposure

Compound: Cc1ccc2nc(NCCN)c3ncc(C)n3c2c1 [BMS-345541]
- severity of disease [2]: significantly reduced the severity of disease

Compound: CC[C@H](C)[C@H](NC(=O)[C@H](CC(C)C)[C@H](C(C)C)N(O)C=O)C(=O)Nc1ccccn1 [GW3333]
- IC50 [3]: 970 nM

Compound: CC(C)C[C@@H](C(=O)N[C@@H](CCCN/C(N)=N/[N+](=O)[O-])C(=O)Nc1nccs1)[C@H](C(C)C)N(O)C=O [Nitroarginine analog A]
- IC50 [4]: 34 nM
- IC50 (TACE): 4 nM
- oral activity [5]: lacks oral activity

Compound: Cc1ccccc1C(=O)Nc1ccc(C(=O)N2CCCC(N(C)C)c3ccccc32)cc1 (centres unmarked) [OPC-31260]
- Meniere's disease symptoms (Meniere's disease): marked reduction of Meniere's disease symptoms

Compound: O=C(Nc1cc(Cl)cc2c1[nH]c1cnccc12)c1cccnc1 [PS-1145]
- production of TNF-α (LPS-challenged mice): reduces the production of TNF-α

Compound: COc1cccc2nc(-c3cccs3)nc(NN3C(=O)C=C(C)C3=O)c12 [SPC-839]
- paw edema (rat arthritis model): reduces paw edema

Compound: CC[C@@H]1/C=C(\C)C[C@H](C)C[C@H](OC)[C@H]2O[C@@](O)(C(=O)C(=O)N3CCCC[C@H]3C(=O)O[C@H](/C(C)=C/[C@@H]3CC[C@H](Cl)[C@H](OC)C3)[C@H](C)[C@@H](O)CC1=O)[C@H](C)C[C@@H]2OC [pimecrolimus, (1R,9S,12S,13R,14S,17R,18E,21S,23S,24R,25S,27R)-12-[(1E)-2-{(1R,3R,4S)-4-chloro-3-methoxycyclohexyl}-1-methylvinyl]-17-ethyl-1,14-dihydroxy-23,25-dimethoxy-13,19,21,27-tetramethyl-11,28-dioxa-4-aza-tricyclo[22.3.1.04,9]octacos-18-ene-2,3,10,16-tetraone]
- atrophy of the skin [1]: do not cause atrophy of the skin
- suppression of Langerhans' cells or dermal connective tissue [1]: do not suppress Langerhans' cells or dermal connective tissue
- systemic exposure after topical application: very little, if any, systemic exposure

Compound: Adalimumab
- patients developing injection site reactions (erythema and/or itching, hemorrhage, pain and/or swelling) (patients [6]; systemic administration): 20%
- lysis of TNF expressing cells (TNF expressing cells): lyses TNF expressing cells in vitro
- binding or inactivation of lymphotoxin (TNF-β) (lymphotoxin (TNF-β)): does not bind or inactivate lymphotoxin

Compound: etanercept
- patients experiencing injection site reactions (mild to moderate erythema and/or itching, pain and/or swelling) (patients [6]; systemically treated): over one-third of patients

Compound: onercept: a soluble TNF p55 receptor, TNF binding factor (Serono)
- adverse outcome reported in phase-III clinical trials (patients [7]): patients diagnosed with fatal sepsis
